Publication PMC12167799, “The role of human Shu complex in ATP-dependent regulation of RAD51 filaments during homologous recombination–associated DNA damage response” (The Journal of Biological Chemistry, 2025)

Target: T1, hSWS1-SWSAP1 (human Shu complex) (Homo sapiens, UniProt Q6NVH7)
T1 construct: heterodimer co-expressed in High Five insect cells (baculovirus); SWSAP1 with TEV-cleavable N-terminal 6xHis tag (cleaved), SWS1 untagged; with Zinc finger SWIM domain-containing protein 7
T1 sequence (Q6NVH7 22-250): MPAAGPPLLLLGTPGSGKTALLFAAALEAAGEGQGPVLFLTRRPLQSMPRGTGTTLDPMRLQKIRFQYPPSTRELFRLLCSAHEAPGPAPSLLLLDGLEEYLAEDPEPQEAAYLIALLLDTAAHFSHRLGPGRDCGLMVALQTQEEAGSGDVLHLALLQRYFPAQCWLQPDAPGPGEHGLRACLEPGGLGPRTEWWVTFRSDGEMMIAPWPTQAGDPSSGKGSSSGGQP
T1 sequence (Q19AV6 1-140 partner): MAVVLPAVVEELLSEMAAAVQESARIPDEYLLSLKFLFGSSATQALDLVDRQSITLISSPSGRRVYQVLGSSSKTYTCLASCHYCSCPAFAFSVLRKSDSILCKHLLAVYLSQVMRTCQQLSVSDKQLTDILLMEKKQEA
Assay: TNP-ATP displacement fluorescence, one-site competitive fit
Assay type: binding
Conditions: read-out: Kd^ATP; 2 μM protein; 2.5 μM TNP-ATP; no DNA; 37 °C; competitive with TNP-ATP

Kd: 72.3 µM
SMILES: Nc1ncnc2c1ncn2[C@@H]1O[C@H](COP(=O)(O)OP(=O)(O)OP(=O)(O)O)[C@@H](O)[C@H]1O [ATP]
